What follows are compounds tested against T1, PI3Kδ (Homo sapiens, UniProt O00329) (assay: PI3Kδ inhibition, modified PIK3CD Adapta TR-FRET assay). Details: recombinant GST-tagged full length PIK3CD co-expressed with PIK3R1 (p85α); 2 μM ATP, 50 μM PIP2.
T1 construct: The protein is full length and co-expressed with untagged PIK3R1; GST; purchased Invitrogen PV5274
Format: biochemical
Procedure: The activity of compounds as PI3Kδ inhibitors may be determined by a variety of methods, including in vitro and in vivo methods. The following in vitro assay measures a test compound's ability to inhibit PI3Kδ-mediated phosphorylation of PIP2 and ATP.
Recombinant GST-tagged PIK3CD is purchased from Invitrogen (Part Number: PV5274). The protein is full length and co-expressed with untagged PIK3R1, phosphoinositide-3-kinase regulatory subunit 1 (p85α). The protein is stored at −20° C. in 50 mM TRIS (pH 7.5), 150 mM NaCl, 0.5 mM EDTA, 0.02% Triton® X-100, 2 mM DTT, and 50% glycerol.
A modified PIK3CD Adapta® assay (Invitrogen, Carlsbad, Calif.) is used to measure PI3Kδ inhibition of the example compounds. The assay has two phases. In the first phase, kinase reaction components, which include the enzyme (PIK3CD), substrates (PIP2, ATP), test compound (inhibitor), and assay buffer are added to each well, and the reaction is allowed to incubate for a pre-determined period of time. […] In the presence of the inhibitor, the amount of ADP formed by the kinase reaction is reduced, and the resulting intact antibody-tracer interaction maintains a high TR-FRET signal.
The reaction buffer contains 50 mM Hepes (pH 7.5), 3 mM MgCl2, 1 mM EGTA, 100 mM NaCl, 0.03% CHAPS; 2 mM DTT is added fresh prior to each experiment. […] Next, test compounds (2 μL) from a source plate (5% dilution plate) are introduced into the wells. The final DMSO concentration in each assay well is 1%. […] Other wells contain test compounds serially diluted across the plate 11 times for a total of 12 data points. The kinase reactions are carried out at room temperature and are initiated by the addition of 4 μL of solution containing 2 μM ATP and 50 μM PIP2. […] This emission signal is referenced or “ratioed” to the emission from Eu at 620 nm. […] The percent inhibition for a given inhibitor concentration is computed from % conversion for the reaction and for the positive and negative controls.

T1 sequence (O00329 whole entry): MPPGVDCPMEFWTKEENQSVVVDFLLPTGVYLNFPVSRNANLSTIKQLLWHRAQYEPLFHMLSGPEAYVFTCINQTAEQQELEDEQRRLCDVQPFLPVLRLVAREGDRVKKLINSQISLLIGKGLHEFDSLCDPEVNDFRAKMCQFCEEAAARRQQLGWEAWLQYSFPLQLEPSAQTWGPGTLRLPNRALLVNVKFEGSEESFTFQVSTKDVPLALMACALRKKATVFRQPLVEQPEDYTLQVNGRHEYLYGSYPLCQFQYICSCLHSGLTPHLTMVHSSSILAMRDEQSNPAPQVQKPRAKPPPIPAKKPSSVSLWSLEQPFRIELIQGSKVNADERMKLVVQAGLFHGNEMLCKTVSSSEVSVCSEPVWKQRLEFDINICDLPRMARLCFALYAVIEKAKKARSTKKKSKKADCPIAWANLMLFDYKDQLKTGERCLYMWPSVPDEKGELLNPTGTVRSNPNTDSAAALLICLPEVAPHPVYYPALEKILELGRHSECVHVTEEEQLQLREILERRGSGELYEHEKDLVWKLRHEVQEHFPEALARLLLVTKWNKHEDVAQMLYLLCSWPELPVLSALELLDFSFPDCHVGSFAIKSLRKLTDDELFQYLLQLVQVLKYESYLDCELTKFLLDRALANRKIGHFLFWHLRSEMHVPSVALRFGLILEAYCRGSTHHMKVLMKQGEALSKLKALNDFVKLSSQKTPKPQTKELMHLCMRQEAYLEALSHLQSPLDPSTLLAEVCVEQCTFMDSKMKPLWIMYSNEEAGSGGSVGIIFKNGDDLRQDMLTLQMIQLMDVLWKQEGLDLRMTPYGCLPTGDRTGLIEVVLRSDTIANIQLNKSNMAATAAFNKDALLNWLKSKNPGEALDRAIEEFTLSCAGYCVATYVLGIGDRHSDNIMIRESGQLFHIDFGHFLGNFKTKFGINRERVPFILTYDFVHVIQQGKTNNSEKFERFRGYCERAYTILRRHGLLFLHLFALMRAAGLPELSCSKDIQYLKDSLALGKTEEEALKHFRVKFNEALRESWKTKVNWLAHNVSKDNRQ
T1 sequence (P27986 whole entry partner): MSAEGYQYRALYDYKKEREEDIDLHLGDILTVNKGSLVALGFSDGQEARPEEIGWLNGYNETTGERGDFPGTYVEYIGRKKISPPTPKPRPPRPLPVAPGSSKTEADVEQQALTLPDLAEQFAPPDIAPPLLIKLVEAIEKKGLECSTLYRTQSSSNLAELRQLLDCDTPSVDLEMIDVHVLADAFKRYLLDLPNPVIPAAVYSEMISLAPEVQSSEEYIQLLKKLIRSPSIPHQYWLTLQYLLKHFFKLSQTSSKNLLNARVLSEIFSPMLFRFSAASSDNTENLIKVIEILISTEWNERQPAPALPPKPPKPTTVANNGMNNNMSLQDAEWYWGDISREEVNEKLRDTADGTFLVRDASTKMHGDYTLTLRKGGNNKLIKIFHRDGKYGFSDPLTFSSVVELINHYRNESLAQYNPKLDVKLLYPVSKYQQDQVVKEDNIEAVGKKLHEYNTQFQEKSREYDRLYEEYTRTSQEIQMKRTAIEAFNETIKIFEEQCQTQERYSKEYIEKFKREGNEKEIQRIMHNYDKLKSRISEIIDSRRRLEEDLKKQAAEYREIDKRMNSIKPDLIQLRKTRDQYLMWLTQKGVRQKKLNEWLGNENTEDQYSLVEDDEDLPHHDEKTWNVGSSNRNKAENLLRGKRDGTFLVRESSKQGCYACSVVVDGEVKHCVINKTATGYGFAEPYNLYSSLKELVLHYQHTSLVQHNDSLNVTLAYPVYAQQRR

| PI3Kδ Inhibition (pIC50) | SMILES |
| --- | --- |
| 7.1 | CNC(=O)Nc1ccc(-c2ncc3c(n2)N2CCOC[C@@H]2C(=O)N3[C@@H](C)c2ccc(C)cc2)cc1 (single isomer, unassigned) [Example 87] |
| 6.9 | Cc1ccc([C@H](C)N2C(=O)[C@H]3COCCN3c3nc(-c4cccc5[nH]ccc45)ncc32)cc1 [Example 154, (R)-2-(1H-indol-4-yl)-5-((5)-1-p-tolylethyl)-6a,7,9,10-tetrahydro-[1,4]oxazino[3,4-h]pteridin-6(5H)-one] |

Same assay, conditions: recombinant GST-tagged full length PIK3CD co-expressed with PIK3R1 (p85α); 2 μM ATP, 50 μM PIP2; read-out: PI3Kδ Inhibition (pIC50) (converted)

| IC50 [nM] | SMILES |
| --- | --- |
| 79.4 | CS(=O)(=O)c1ccc(CN2C(=O)C3COCCN3c3nc(-c4cccc5[nH]cnc45)ncc32)cc1 (stereo not shown) [Example 139, 2-(1H-benzo[d]imidazol-4-yl)-5-(4-(methylsulfonyl)benzyl)-6a,7,9,10-tetrahydro-[1,4]oxazino[3,4-h]pteridin-6(5H)-one] |
| 316 | Cc1nccn1-c1ncc2c(n1)N1CCOCC1C(=O)N2Cc1ccc(S(C)(=O)=O)cc1 (stereo not shown) [Example 156, 2-(2-methyl-1H-imidazol-1-yl)-5-(4-(methylsulfonyl)benzyl)-6a,7,9,10-tetrahydro-[1,4]oxazino[3,4-h]pteridin-6(5H)-one] |
| 63.1 | Cc1ccc(CO)c(CN2C[C@@H]3COCCN3c3nc(-c4cccc5[nH]ccc45)ncc32)c1 [Example 166, (R)-(2-((2-(1H-indol-4-yl)-6a,7,9,10-tetrahydro-[1,4]oxazino[3,4-h]pteridin-5(6H)-yl)methyl)-4-methylphenyl)methanol] |
| 126 | c1cc(-c2ncc3c(n2)N2CCOCC2CN3Cc2nnnn2C2CC2)c2cc[nH]c2c1 (stereo not shown) [Example 36, 5-((1-cyclopropyl-1H-tetrazol-5-yl)methyl)-2-(1H-indol-4-yl)-5,6,6a,7,9,10-hexahydro-[1,4]oxazino[3,4-h]pteridine] |
| 7940 | CCOC(=O)c1cncc(-c2ncc3c(n2)N2CCOCC2C(=O)N3Cc2ccc(S(C)(=O)=O)cc2)c1 (stereo not shown) [Example 105, ethyl 5-(5-(4-(methylsulfonyl)benzyl)-6-oxo-5,6,6a,7,9,10-hexahydro-[1,4]oxazino[3,4-h]pteridin-2-yl)nicotinate] |
| 5010 | O=C1Nc2cnc(-c3cccc4c3OCO4)nc2N2CCOCC12 (stereo not shown) [Example 151, 2-(benzo[d][1,3]dioxol-4-yl)-6a,7,9,10-tetrahydro-[1,4]oxazino[3,4-h]pteridin-6(5H)-one] |
| 398 | CCc1nnc(CN2C[C@@H]3COCCN3c3nc(-n4ccc5cnccc54)ncc32)o1 [Example 180, (R)-5-((5-ethyl-1,3,4-oxadiazol-2-yl)methyl)-2-(1H-pyrrolo[3,2-c]pyridin-1-yl)-5,6,6a,7,9,10-hexahydro-[1,4]oxazino[3,4-h]pteridine] |
| 50.1 | COc1cc(C(N)=O)ccc1CN1CC2COCCN2c2nc(-c3cccc4[nH]ccc34)ncc21 (stereo not shown) [Example 79, 4-((2-(1H-indol-4-yl)-6a,7,9,10-tetrahydro-[1,4]oxazino[3,4-h]pteridin-5(6H)-yl)methyl)-3-methoxybenzamide] |
| 1580 | CS(=O)(=O)c1ccc(CN2C(=O)C3COCCN3c3nc(-c4cccc(S(=O)(=O)NC5CC5)c4)ncc32)cc1 (stereo not shown) [Example 116, N-cyclopropyl-3-(5-(4-(methylsulfonyl)benzyl)-6-oxo-5,6,6a,7,9,10-hexahydro-[1,4]oxazino[3,4-h]pteridin-2-yl)benzenesulfonamide] |
| 126 | Cc1ccccc1N1C[C@@H]2COCCN2c2nc(-c3cccc4[nH]ccc34)ncc21 [Example 187, (R)-2-(1H-indol-4-yl)-5-(o-tolyl)-5,6,6a,7,9,10-hexahydro-[1,4]oxazino[3,4-h]pteridine] |
| 794 | O=C(CN1C[C@@H]2COCCN2c2nc(-c3ccsc3)ncc21)NCC1CCOCC1 [Example 223, (R)—N-((tetrahydro-2H-pyran-4-yl)methyl)-2-(2-(thiophen-3-yl)-6a,7,9,10-tetrahydro-[1,4]oxazino[3,4-h]pteridin-5(6H)-yl)acetamide] |
| 251 | O=C(CN1C[C@@H]2COCCN2c2nc(-c3ccc(F)c(CO)c3)ncc21)NCC1CCOCC1 [Example 220, (R)-2-(2-(4-fluoro-3-(hydroxymethyl)phenyl)-6a,7,9,10-tetrahydro-[1,4]oxazino[3,4-h]pteridin-5(6H)-yl)-N-((tetrahydro-2H-pyran-4-yl)methyl)acetamide] |
| 50.1 | N#Cc1ccccc1N1C[C@@H]2COCCN2c2nc(-c3cccc4[nH]ccc34)ncc21 [Example 186, (R)-2-(2-(1H-indol-4-yl)-6a,7,9,10-tetrahydro-[1,4]oxazino[3,4-h]pteridin-5(6H)-yl)benzonitrile] |
| 126 | CS(=O)(=O)c1ccc(CN2C(=O)C3COCCN3c3nc(-c4ccc(N)c(N)c4)ncc32)cc1 (stereo not shown) [Example 131, 2-(3,4-diaminophenyl)-5-(4-(methylsulfonyl)benzyl)-6a,7,9,10-tetrahydro-[1,4]oxazino[3,4-h]pteridin-6(5H)-one] |
| 3.98 | CNC(=O)Nc1ccc(-c2ncc3c(n2)N2CCOCC2C(=O)N3[C@@H](C)c2ccc(Cl)cc2)cc1 (single isomer, unassigned) [Example 161] |
| 200 | CS(=O)(=O)Nc1ccc(-c2ncc3c(n2)N2CCOCC2C(=O)N3Cc2ccc(S(C)(=O)=O)cc2)cc1 (stereo not shown) [Example 102, N-(4-(5-(4-(methylsulfonyl)benzyl)-6-oxo-5,6,6a,7,9,10-hexahydro-[1,4]oxazino[3,4-h]pteridin-2-yl)phenyl)methanesulfonamide] |
| 31.6 | C[C@@H](c1ccc(Cl)cc1)N1C(=O)C2COCCN2c2nc(-c3cccc4[nH]ccc34)ncc21 (mixture of isomers) [Example 163, 5-((S)-1-(4-chlorophenyl)ethyl)-2-(1H-indol-4-yl)-6a,7,9,10-tetrahydro-[1,4]oxazino[3,4-h]pteridin-6(5H)-one] |
| 6310 | CS(=O)(=O)c1ccc(CN2C(=O)C3COCCN3c3nc(-c4cccc(N5CCCS5(=O)=O)c4)ncc32)cc1 (stereo not shown) [Example 132, 2-(3-(1,1-dioxidoisothiazolidin-2-yl)phenyl)-5-(4-(methylsulfonyl)benzyl)-6a,7,9,10-tetrahydro-[1,4]oxazino[3,4-h]pteridin-6(5H)-one] |
| 3160 | c1cc(-c2ncc3c(n2)N2CCOCC2CN3)c2nc[nH]c2c1 (stereo not shown) [Example 10, 2-(1H-benzo[d]imidazol-4-yl)-5,6,6a,7,9,10-hexahydro-[1,4]oxazino[3,4-h]pteridine] |
| 794 | CC(C)(C)OC(=O)N[C@H]1CC[C@H](CN2CC3COCCN3c3nc(-c4cccc5[nH]ccc45)ncc32)CC1 (stereo partly shown) [Example 57, tert-butyl ((1r,4r)-4-((2-(1H-indol-4-yl)-6a,7,9,10-tetrahydro-[1,4]oxazino[3,4-h]pteridin-5(6H)-yl)methyl)cyclohexyl)carbamate] |
| 15.8 | CC(C)(O)CCCN1C[C@@H]2COCCN2c2nc(-c3cccc4[nH]ccc34)ncc21 [Example 227, (R)-5-(2-(1H-indol-4-yl)-6a,7,9,10-tetrahydro-[1,4]oxazino[3,4-h]pteridin-5(6H)-yl)-2-methylpentan-2-ol] |
| > 100 | CS(=O)(=O)c1ccc(CN2C(=O)C3COCCN3c3nc(-c4c[nH]c5c(Cl)cccc45)ncc32)cc1 (stereo not shown) [Example 134, 2-(7-chloro-1H-indol-3-yl)-5-(4-(methylsulfonyl)benzyl)-6a,7,9,10-tetrahydro-[1,4]oxazino[3,4-h]pteridin-6(5H)-one] |
| 501 | CS(=O)(=O)c1ccc(CN2C(=O)C3COCCN3c3nc(-c4cccc(C(N)=O)c4)ncc32)cc1 (stereo not shown) [Example 113, 3-(5-(4-(methylsulfonyl)benzyl)-6-oxo-5,6,6a,7,9,10-hexahydro-[1,4]oxazino[3,4-h]pteridin-2-yl)benzamide] |
| 200 | CS(=O)(=O)c1ccc(CN2C(=O)C3COCCN3c3nc(-c4ccc5[nH]ncc5c4)ncc32)cc1 (stereo not shown) [Example 114, 2-(1H-indazol-5-yl)-5-(4-(methylsulfonyl)benzyl)-6a,7,9,10-tetrahydro-[1,4]oxazino[3,4-h]pteridin-6(5H)-one] |
| 501 | CS(=O)(=O)c1ccc(CN2C(=O)C3COCCN3c3nc(-c4c[nH]c5ncccc45)ncc32)cc1 (stereo not shown) [Example 137, 5-(4-(methylsulfonyl)benzyl)-2-(1H-pyrrolo[2,3-b]pyridin-3-yl)-6a,7,9,10-tetrahydro-[1,4]oxazino[3,4-h]pteridin-6(5H)-one] |
| 63.1 | NC(=O)c1ccccc1CN1CC2COCCN2c2nc(-c3cccc4[nH]ccc34)ncc21 (stereo not shown) [Example 74, 2-((2-(1H-indol-4-yl)-6a,7,9,10-tetrahydro-[1,4]oxazino[3,4-h]pteridin-5(6H)-yl)methyl)benzamide] |

From patent US8791107B2, “N-substituted oxazinopteridines and oxazinopteridinones” (Takeda Pharmaceutical Company Limited, priority 2011, dated 2014)
